Usually melting point stands for the temperature of the solid-liquid transition.

With `O=C(C1=NOC2C(=O)N(c3ccccc3Cl)C(=O)C12)c1cccs1` (stereo not drawn), the melting point amounted to 180 °C. As to `Nc1cc(-c2ccc(F)cc2)nc(N)n1`, the melting point was 164 to 166 °C. In turn, `CCCCc1c(C)nc(N(C)C)nc1O` came in with a melting point of 102 °C.

Turning to `Clc1cccc(Cl)c1CBr`, the melting point amounted to 56 °C.

The compound `CSc1nn2c(C(F)(F)F)cc(C(F)(F)F)nc2c1C(N)=O` had a melting point of 250 °C. Take `CC1CCCC(C)C1` (stereo not drawn): the melting point is -90.1 °C. Regarding `CCCCSP(SCCCC)SCCCC`, the melting point is 100 °C. In the case of `CCC1(CC)C(=O)NC(=S)NC1=O`, the melting point came to 180 °C.

`Cc1nn(C)c(C)c1N` registered a melting point of 102 °C. For `CSc1nc2nc(SC)n(C)c2c(=O)n1-c1ccc(F)cc1`, the melting point was 177 to 179 °C.

Regarding `CCC(C1CCCCC1)C1CCCCC1`, the melting point was -23.5 °C. `Cc1ccccc1-n1c(C)nc2ccccc2c1=O` displayed a melting point of 120 °C. Next, `Cc1c(C(=O)CBr)sc2ccccc12`: 98 to 99 °C; `N#Cc1ccc(N)c(F)c1`: 89 °C. Regarding `Brc1cccc2cnccc12`, the melting point is 82 °C.

Consider `O=C1C(C(O)c2ccc(Cl)cc2)C(C(F)(F)F)=NN1c1ccccc1` (stereo not drawn), for which the melting point came out at 168 °C. The compound `CC(=O)c1ccc2c(c1)NC(=O)CO2` came in with a melting point of 196 °C. In turn, `CN(C)C(=O)C(C(F)(F)F)C(F)(F)F` came in with a melting point of 54 °C. `COc1ccc(C(=O)c2ccccc2O)c(O)c1` yielded a melting point of 68 °C. Regarding `N#Cc1cc2cc3c4c(c2oc1=O)CCCN4CCC3`, the melting point was found to be 250 °C. In the case of `O=C(O)c1nc(Cl)ccc1Cl` it was 151 °C.

On to `O=C(O)c1ccc2cc(C(=O)O)ccc2c1`, for which the melting point was 300 °C.

For `O=C(O)c1ccc(Cn2cnc3ccccc32)cc1`, the melting point fell in the range of 260 to 262 °C. The compound `COc1ccc2c(c1)CC(CCC(=O)O)(CCC(=O)O)C2=O` had a melting point of 151 °C. For the compound `Nc1n[nH]c(S)n1`, the melting point was found to be 300 °C.

With `C1CCC2OC2C1` (stereo not drawn), the melting point is -40 °C. Regarding `Cc1cc(Cl)c(O)c(Cl)c1`, the melting point came to 39 °C. As to `N=c1oc2ccccc2cc1CSN`, the melting point was found to be 165 °C. With `CC12CCC(CCC1=O)C2(C)C` (stereo not drawn), the melting point was determined as 193 °C.

For the compound `Brc1cccc(Cn2ccnc2)c1`, the melting point fell in the range of 62 to 70 °C.

`CCC(C)(N)P(=O)(O)O` (stereo not drawn) returned a melting point of 268 to 272 °C. Compound `CCN1C(=O)CSC1=S` registered a melting point of 38 °C. `O=C(O)c1ccc(O)c(O)c1` yielded a melting point of 201 °C.

As for `COc1ccc(-c2onc(C(=O)c3ccc(C)cc3)c2S(=O)(=O)c2ccccc2)cc1`, the melting point was 170 °C.

Compound `Nc1ccc(C2(c3ccc(N)cc3)OC(=O)c3ccccc32)cc1` registered a melting point of 203 °C. Next, `C#CCCCCC`: -81 °C; `O=C(O)c1cc(I)ccc1Cl`: 161 to 163 °C; `CC(=O)C=NO`: 69 °C. In the case of `Cc1c(Cl)ncnc1Cl` it was 58 °C; in that of `COC(=O)c1ccc(Cl)cc1[N+](=O)[O-]`, 44 °C.

`CC(=O)Nc1ccc2c(c1)Cc1cc([N+](=O)[O-])ccc1-2` registered a melting point of 262 °C. Consider `CCOC(=O)C(C)C(O)(c1ccccc1)c1ccccc1` (stereo not drawn), for which the melting point was 102 °C. In the case of `O=[N+]([O-])C1CCCCC1`, the melting point is -34 °C.

`Cc1ccc(-c2nnc(CCl)o2)cc1`: the melting point was in the range of 121 to 123 °C. `O=C(O)c1cccc2c1CCCC2` showed a melting point of 147 to 150 °C. `COc1ccc(N/N=C(\C#N)c2nc(-c3ccccc3)cs2)cc1` came in with a melting point of 150 °C. As to `CCOP(=S)(OCC)Oc1ccc([N+](=O)[O-])cc1`, the melting point amounted to 6.1 °C. In turn, `O=C(O)Cc1ccc(F)cc1F` returned a melting point of 118 °C. For the compound `Cc1ncccc1O`, the melting point is 168 °C.

In turn, `O=C(O)[C@@H]1CCCC[C@H]1C(=O)c1cccs1` (relative stereo) gave a melting point of 179 to 184 °C. Next, `COc1ccc(Br)c(C(=O)CC#N)c1`: 92 to 93 °C; `COc1ccc(Cl)c(N)c1`: 27 °C. Regarding `Cc1c(C)c(C)c2c(c1C)C(=O)CC2C(=O)O` (stereo not drawn), the melting point was 214 °C.

The compound `O=[N+]([O-])c1ccc2c(c1)OCCOCCOc1ccccc1OCCOCCO2` had a melting point of 190 to 195 °C. Next, `O=C(O)C=CC(=O)c1ccccc1`: 91 to 96 °C; `CC=Cc1ccc(OCC)c(O)c1`: 87 °C; `CN(C)c1ccc(C=Nc2n[nH]c(N=Cc3ccc(N(C)C)cc3)c2Cc2ccc(Cl)cc2)cc1`: 260 to 262 °C.

For `O=C(c1ccccc1)c1cccc(C(=O)c2ccccc2)c1`, the melting point stood at 98.5 °C. `Cc1ccc(C=C2N=C(c3ccccc3)OC2=O)o1` showed a melting point of 159 to 160 °C. In the case of `C#CC(C)(C)NC(=O)c1cc(Cl)cc(Cl)c1`, the melting point was 156 °C. Take `C[Si](C)(C)C#N`: the melting point came out at 11 °C. `Clc1cc(Cl)c2oc3c(Cl)c(Cl)ccc3c2c1` gave a melting point of 164 °C.

Consider `Cn1c(=O)cc(NN)c2ccccc21`, for which the melting point is 216 °C. `Nc1ncccc1Cl` registered a melting point of 61 °C. `O=C(OCC1OC(O)(COC(=O)c2cccnc2)C(OC(=O)c2cccnc2)C1OC(=O)c1cccnc1)c1cccnc1` (stereo not drawn) yielded a melting point of 141 °C. In the case of `S=C=Nc1ccc(Br)cc1Cl` it was 46 °C; in that of `COc1cc2c(cc1O)CCNC2`, 222 °C. Take `COc1ccc(F)cc1`: the melting point is -45 °C. `Cc1ccc2[nH]c3ccccc3c2c1` returned a melting point of 208 °C.

`NS(=O)(=O)c1cc2c(cc1C(F)(F)F)NCNS2(=O)=O` returned a melting point of 272 °C. `O=C1C(=C2C=Cc3ccc(O)cc3N2)C(=O)c2ccccc21` showed a melting point of 266 to 267 °C.

Compound `Cc1cc(C)c(N)c(C(O)c2ccccc2)c1` (stereo not drawn) yielded a melting point of 125 °C. In the case of `c1ccc(P(c2ccccc2)c2ccccc2Oc2ccccc2P(c2ccccc2)c2ccccc2)cc1` it was 184 to 187 °C. `FC(F)(F)C1N=NC(N=Cc2ccc(Cl)cc2)=N1` (stereo not drawn) registered a melting point of 234 °C. Next, `Br/C(=C(/Br)c1ccccc1)c1ccccc1`: 228 °C; `O=[N+]([O-])c1cc(Cl)cc(Cl)c1O`: 122 °C; `ClCc1ccc2c(c1)OCO2`: 20.5 °C. Compound `O=C(O)[C@@H]1Cc2ccc(O)cc2CN1` gave a melting point of 273 to 275 °C.

Consider `CC(=O)N(C)c1cccc(N(C)C(C)=O)c1`, for which the melting point amounted to 152 °C. On to `COc1ccc(C#N)c(OC)c1`, for which the melting point was 94 °C.

With `O=C1C=CC(=O)c2c(O)cccc21`, the melting point is 162 °C. Consider `OCCN(CCO)CCc1ccc(COc2ccccc2)cc1`, for which the melting point was 83 °C. In the case of `Clc1ccc(Oc2ccccc2)cc1`, the melting point was -8 °C. Turning to `O=[N+]([O-])c1cnc(NC2=NCCN2)s1`, the melting point is > 250 °C. As for `NCC(=O)NCC(=O)O`, the melting point was 262 to 264 °C.

Take `NS(=O)(=O)c1ccc(SCCO)cc1`: the melting point was determined as 112 °C. Take `N#Cc1ccc(F)cc1Cl`: the melting point was found to be 64 °C. Regarding `O=Cc1ccc(-n2cccc2)cc1`, the melting point was in the range of 94 to 95 °C. Turning to `BrCC(CBr)=C(CBr)CBr`, the melting point fell in the range of 135 to 145 °C. Compound `O=C(Nc1ccc2nn(C3CCCCC3)nc2c1)c1ccccc1` registered a melting point of 212 °C. In the case of `CC1=Nc2ccccc2Nc2c1c(=O)n(-c1ccccc1)c1ccccc21` it was 297 to 299 °C; in that of `N[C@H](CO)[C@H](O)c1ccc([N+](=O)[O-])cc1`, 160 to 166 °C; in that of `CC/C(=N/NC(N)=O)C1=CC2(C)CCC1C2(C)C` (stereo not drawn), 196 to 197 °C.

Compound `CC/C(CCCc1ccccc1)=N\NC(N)=O` gave a melting point of 149 °C. `NS(=O)(=O)c1ccc(N2C(=O)CC(c3ccccc3)C2=O)c(Cl)c1` (stereo not drawn) displayed a melting point of 206 °C.

In the case of `NNC(=O)C=Cc1ccc(C=CC(=O)NN)cc1`, the melting point was 258 to 260 °C. In turn, `NS(=O)(=O)c1cc(C(=O)c2ccc(O)cc2)cs1` returned a melting point of 192 °C. For the compound `Cc1ccc(NC(=O)N(C)C)cc1Cl`, the melting point was 148 °C.

For `FC(Cl)C(F)(F)F` (stereo not drawn), the melting point was -199 °C. `O=[N+]([O-])c1ccc(C(O)C(O)CO)cc1` (stereo not drawn): the melting point was 93 to 97 °C. Compound `Cc1nc2ccccn2c1C=O` returned a melting point of 117 to 118 °C. The compound `COc1ccc(C(Cl)=C(c2ccc(OC)cc2)c2ccc(OC)cc2)cc1` came in with a melting point of 115 °C. Compound `CC12CCC3C(C(=O)CC4CC(O)CCC43C)C1CCC2O` (stereo not drawn) displayed a melting point of 198 °C. `O=C(O)c1cc([N+](=O)[O-])cnc1O` had a melting point of 246 °C. `CC(C)=NNC(N)=O`: the melting point stood at 182 °C. With `COc1ccc(C#N)c(OC(F)(F)F)c1`, the melting point was 32 °C. `CC(=O)NCc1c(I)c(NC(C)=O)c(I)c(C(=O)O)c1I` yielded a melting point of 255 °C. `Nc1cc(C(=O)O)ccc1O` came in with a melting point of 198 to 205 °C. `CC12CCCC1C1CCC(CC(=O)O)C(C)(CC(=O)O)C1CC2` (stereo not drawn) came in with a melting point of 229 °C.

For `Nc1nc2ccc([N+](=O)[O-])cc2s1`, the melting point lay in the range of 247 to 249 °C. The compound `CC(C)(C)OC(=O)N[C@@H](CC(=O)O)c1ccc(Br)cc1` gave a melting point of 144 °C. `COCCCn1c(C(=O)O)cc2c(=O)n(C)c(=O)n(C)c21` showed a melting point of 166 °C. The compound `NN=C1c2ccccc2-c2ccccc21` showed a melting point of 152 °C.

Values taken from a melting point compilation (Tetko et al.).
